For data set [1] the following is noted: for Water in DEB / AcOH in DEB / AcOH in water (final in DEB) / D = AcOH in DEB/AcOH in water: 25° C., single extraction.
A short description of data set [2]: Distribution of ethanol and isobutanol between water and DEB phases. The format is physicochemical. The settings on record: for Distribution coefficient of isobutanol (DEB/water) / Amount of iBuOH in water (final) / Amount of iBuOH in DEB (final) / Amount of EtOH in water (final) / D = conc. of EtOH in DEB/conc. of EtOH in water / Amount of EtOH in DEB (final): single extraction; for Amount of iBuOH in DEB (final) / Amount of EtOH in DEB (final): mass balance. The method, then:
The amount of ethanol and isobutanol in water phase was measured using HPLC (see above for details). The concentrations of ethanol taken were: 8, 6, 3, 2, 1 and 0.5 wt %.
Distribution coefficient is reported on the basis of HPLC results of aqueous phase and that of mass balance of both the phases. Experiments are currently underway to determine the amount of ethanol, iso butanol in DEB phase. Gas chromatography will be used to quantify the amount of ethanol and isobutanol present in the DEB phase. Water measurements will be done using a Karl Fischer apparatus.
Here also, distribution coefficient is reported on the basis of HPLC results of aqueous phase and that of mass balance of both the phase.

The nature of data set [3]: Distribution of hydroxymethylfurfural and furfural between water and DEB phases. It is filed as physicochemical. The settings on record: 25° C., single extraction; for Amount of furfural in DEB phase (g) (final in DEB phase) / Amount of HMF in DEB phase (g) (final in DEB phase): mass balance. On the procedure: The amounts of hydroxymethylfurfural and furfural in water phase were measured
using HPLC (see above for details). […] Distribution coefficient is reported on the basis of HPLC results of aqueous phase and that of mass balance of both the phases. The amount of hydroxymethylfurfural in DEB phase may be quantified using gas chromatography. Water measurements of the separated DEB phase containing hydroxymethylfurfural may be carried out using a Karl Fischer apparatus.
Distribution coefficient is reported on the basis of HPLC results of aqueous phase and that of mass balance of both the phases. The amount of furfural in DEB phase may be quantified using gas chromatography. Water measurements of the separated DEB phase containing furfural may be carried out using a Karl Fischer apparatus.

For data set [4] the following is noted: cloud-point.
[5] abbreviates: 4.91 g DEB, 0.33 g AcOH initially in 4.1 g water.
Setting [6] is: 5.8 g DEB, 0.17 g AcOH initially in 4.2 g water.
Setting [7] is: 6.5 g DEB, 0.07 g AcOH initially in 4.3 g water.
The mark [8] stands for this setting: 4.76 g DEB, 0.26 g iBuOH initially in 4.74 g water.
Setting [9] is: 4.88 g DEB, 0.13 g iBuOH initially in 4.89 g water.
Setting [10] is: 4.93 g DEB, 0.071 g iBuOH initially in 4.92 g water.
The mark [11] stands for this setting: 5.08 g DEB, 0.028 g iBuOH initially in 5.03 g water.
The mark [12] stands for this setting: 4.98 g DEB, 0.0491 g furfural initially in 5.01 g water.
The mark [13] stands for this setting: 5.02 g DEB, 0.0242 g furfural initially in 4.98 g water.
Where [14] appears, read: 5.11 g DEB, 0.0141 g furfural initially in 5.05 g water.
The mark [15] stands for this setting: 4.63 g DEB, 0.99 g EtOH initially in 4.62 g water.
The mark [16] stands for this setting: 4.71 g DEB, 0.31 g EtOH initially in 4.70 g water.
Setting [17] is: 4.85 g DEB, 0.16 g EtOH initially in 4.86 g water.
Setting [18] is: 4.92 g DEB, 0.11 g EtOH initially in 4.89 g water.
Setting [19] is: 4.97 g DEB, 0.06 g EtOH initially in 4.98 g water.
[20] abbreviates: 5.02 g DEB, 0.03 g EtOH initially in 5.03 g water.
[21] abbreviates: 5.01 g DEB, 0.0132 g HMF initially in 5.01 g water.
[22] abbreviates: 5.01 g DEB, 0.0512 g HMF initially in 5.11 g water.
Setting [23] is: 5.02 g DEB, 0.0251 g HMF initially in 5.03 g water.

The source of these data is patent publication US8835660B2, “Method for extracting organic compounds from aqueous mixtures” (The Regents of the University of California, priority 2010, dated 2014).

Read-outs that look alike come from different tables or passages of the source.

water: the “Water in DEB” value in data set [1] (setting [5]) came out at 300 µg; in data set [1] (setting [6]), 100 µg; in data set [1] (setting [7]), 90 µg. Moreover, the “water content in the DEB phase” value in data set [1] (after contact experiment with acetic acid solutions) is recorded as “less than 300 ppm”.
Take `CC(C)CO` [isobutanol]: the measured distribution coefficients in data set [2] (5, 3, 2, and 1 wt % of isobutanol) was 2.5-3.5. The “concentration in DEB relative to concentration in water at equilibrium” value in data set [2] (DEB and water phases in equilibrium) is reported as 2-3 times. For the same compound, the “Distribution coefficient of isobutanol (DEB/water)” value turned out to be 2.71 in data set [2] (setting [8]), 3.33 in data set [2] (setting [9]), 2.72 in data set [2] (setting [10]) and 3.59 in data set [2] (setting [11]). For the same compound, the “Amount of iBuOH in water (final)” value is given as 0.07 grams in data set [2] (setting [8]), 0.03 grams in data set [2] (setting [9]), 0.018 grams in data set [2] (setting [10]) and 0.0061 grams in data set [2] (setting [11]). In addition, the “Amount of iBuOH in DEB (final)” value amounted to 0.19 grams in data set [2] (setting [8]), 0.10 grams in data set [2] (setting [9]), 0.053 grams in data set [2] (setting [10]) and 0.0219 grams in data set [2] (setting [11]).
For the compound `O=Cc1ccco1` [furfural], the figures for the “Amount of furfural in water phase (g) (final)” value in data set [3] (setting [12]), in data set [3] (setting [13]) and in data set [3] (setting [14]) were 0.0249 g, 0.0161 g and 0.0069 g, respectively. The “D = conc. of furfural in DEB/conc. of furfural in water” value in data set [3] (setting [12]) is listed as 0.98; in data set [3] (setting [13]), 0.91; in data set [3] (setting [14]) it was 1.03. The “Amount of furfural in DEB phase (g) (final in DEB phase)” value in data set [3] (setting [12]) was 0.0242 g; in data set [3] (setting [13]), 0.0088 g; in data set [3] (setting [14]), 0.0071 g.
On to `CC(=O)O` [acetic acid], for which the “AcOH in DEB” value in data set [1] (setting [5]) turned out to be 0.171 grams; in data set [1] (setting [6]), 0.088 grams; in data set [1] (setting [7]), 0.033 grams. Besides, the “AcOH in water (final in DEB)” value in data set [1] (setting [5]) was 0.163 grams; in data set [1] (setting [6]), 0.082 grams; in data set [1] (setting [7]), 0.034 grams. Besides, the “D = AcOH in DEB/AcOH in water” value in data set [1] (setting [5]) came out at 1.1; in data set [1] (setting [6]), 1.08; in data set [1] (setting [7]), 0.98.
As for `CCO` [ethanol], the “Amount of EtOH in water (final)” value was 0.51 grams in data set [2] (setting [15]); 0.15 grams in data set [2] (setting [16]); 0.073 grams in data set [2] (setting [17]); 0.052 grams in data set [2] (setting [18]); 0.031 grams in data set [2] (setting [19]); 0.014 grams in data set [2] (setting [20]). Also, the “D = conc. of EtOH in DEB/conc. of EtOH in water” value was found to be 0.94 in data set [2] (setting [15]); 1.06 in data set [2] (setting [16]); 1.2 in data set [2] (setting [17]); 1.11 in data set [2] (setting [18]); 0.93 in data set [2] (setting [19]); 1.16 in data set [2] (setting [20]). In addition, the “Amount of EtOH in DEB (final)” value was found to be 0.48 grams in data set [2] (setting [15]); 0.16 grams in data set [2] (setting [16]); 0.087 grams in data set [2] (setting [17]); 0.058 grams in data set [2] (setting [18]); 0.029 grams in data set [2] (setting [19]); 0.016 grams in data set [2] (setting [20]).
For `CCCCOCCOCCOCCCC` [DEB, diethylene glycol dibutyl ether], in data set [4], the “DEB solubility in water” value is recorded as “less than 10 ppm”.
For the compound `O=Cc1ccc(CO)o1` [hydroxymethylfurfural], in data set [3] (setting [21]), the “Amount of HMF in water phase (g) (final)” value is listed as 0.0083 g, the “D = conc. of HMF in DEB/conc. of HMF in water” value is 0.61 and the “Amount of HMF in DEB phase (g) (final in DEB phase)” value (shortened to “Amount of HMF in DEB phase (g)”) is given as 0.0050 g. For the same compound, in data set [3] (setting [22]), the “Amount of HMF in water phase (g) (final)” value was determined as 0.0321 g, the “D = conc. of HMF in DEB/conc. of HMF in water” value is recorded as 0.59 and the “Amount of HMF in DEB phase (g)” value stood at 0.0191 g. Further, in data set [3] (setting [23]), the “Amount of HMF in water phase (g) (final)” value came to 0.0161 g, the “D = conc. of HMF in DEB/conc. of HMF in water” value is recorded as 0.54 and the “Amount of HMF in DEB phase (g)” value is reported as 0.0088 g.
